Among the data in patent US4570005A, “Process for the preparation of 2-arylpropyl ether or thioether derivatives” (priority 1980, dated 1986) are mortality and LD50 values, retold here.

The subject of data set [1] is tobacco cutworm. Nature of the data set: Test 2: Tobacco Cutworm Larva Dipping Test, mortality after 24 hours. The data set is classed as in vivo. As for the experimental part:
(§1) To a mixture of 20 parts of the compound of the present invention and 20 parts of Sorpol SM-200 (registered tradename for the product supplied by Toho Chemical Industrial Co., Ltd.) was added 60 parts of xylol, and the mixture was suffciently blended. The obtained emulsifiable concentrate was diluted at a predetermined concentration with distilled water, and the obtained dilution was used.
A dilution having a chemical concentration of 100 or 20 ppm was prepared in the same manner as described in Test 1.
Second-instar and fifth-instar larvae of tobacco cutworm were dipped in the dilution for 5 seconds, and the excessive dilution was removed by a filter paper. Then, the larvae were set free in a plastic cup and an artificial diet was supplied thereto. The cup was allowed to stand still in a thermostat chamber maintained at 25° C. After 24 hours, the numbers of the killed and living larvae were counted and the mortality was calculated. The test was made on three cups and the result was expressed by an average value.

In a further data set the test system is German cockroach. The data set can be described thus: Test 7: Effect on German Cockroach. It is filed as in vivo. The conditions noted are these: Blattella germanica, male adults, agonized and killed after 24 hours, read-out: Mortality (%); for mortality at 10 mg/m2: 10 mg/m^2; for mortality at 50 mg/m2: 50 mg/m^2. As for the experimental part:
as §1
The bottom face of a high Petri dish having a diameter of 9 cm and a height of 9 cm was treated with 50 or 10 mg/m^2 of a test compound and the dish was air-dried. In order to prevent the adults from escaping from the dish, the inner wall of the dish was treated with butter. Then, 10 male adults of German cockroach were set free in each dish, and the dish was placed in a thermostat chamber maintained at 25° C. After 24 hours, the number of agonized and killed adults was counted. The test was made on two dishes and the average value was calculated.

Data set [2] in a line: Test 9: Toxicity Test (acute oral toxicity, mice). The conditions noted are these: mouse, in vivo, po. The protocol: A predetermined amount of a solution or suspension of a test compound in corn oil was orally administered to male mice having a body weight of 19 to 23 g (0.2 ml per 10 g of the body weight). After 7 days, the number of killed mice was counted and the influences on the mice were examined.

The subject of data set [3] is sensitive green rice leafhopper (collected at Chigasaki). The data set can be described thus: whole plant or invertebrate. It is filed as in vivo. The conditions noted are these: Nephotettix cincticeps, sensitive female adults, 24 hours, read-out: Mortality (%), Green Rice Leafhopper Collected at Chigasaki. The protocol:
as §1
(§2) Seedlings (having 2 to 3 leaves) of paddy rice were hydroponically cultured in a pot having a diameter of 5 cm. A chemical dilution having a concentration of 100 or 20 ppm, prepared in the same manner as described in Test 1, was applied with a sprayer at a rate of 3 ml per pot. The treated seedlings were air-dried and covered with a metal net cylinder, and female adults of resistant green rice leafhopper (collected at Nakagawara) and sensitive green rice leafhopper (collected at Chigasaki) were set, respectively, free in the pot at a density of 10 adults per pot. After 24 hours, the numbers of killed and living adults were counted and the mortality was calculated. The test was made on three pots and the average value was calculated.

Data set [4] deals with resistant green rice leafhopper (collected at Nakagawara). Nature of the data set: Test 3: Effect on Resistant Green Rice Leafhopper (collected at Nakagawara). The data set is classed as in vivo, Nephotettix cincticeps Uhler (Green rice leafhopper). The conditions noted are these: Nephotettix cincticeps, 24 h, read-out: Mortality (%), Green Rice Leafhopper Collected at Nakagawara. The protocol:
as §1, §2

Another data set concerns diamond back moth. Nature of the data set: Test 4: Effect on Diamond Back Moth. The conditions noted are these: Plutella. It is filed as in vivo. The protocol: as §1
Cabbage leaves were spread in a plastic cup, and 10 third-instar larvae of diamond back moth were set free in the cup.
A chemical dilution having a concentration of 100 or 20 ppm, prepared in the same manner as described in Test 1, was applied from an applicator at a rate of 3 ml per cup.
After scattering of the chemical dilution, the cup was covered, and after 24 hours, the numbers of killed and living larvae were counted and the mortality was calculated. The test was made on three cups and the average value was calculated.

Data set [5] relates to tobacco cutworm. The data set can be described thus: Test 1: Effect on Tobacco Cutworm (leaf immersion), mortality after 24 hours. The data set is classed as in vivo. The conditions noted are these: second-instar larvae, 25° C. As for the experimental part: as §1
An emulsifiable concentrate of a test compound prepared according to the method described in Formulation Example 1 was diluted to a concentration of 100 or 20 ppm. Sweet-potato leaves were immersed in the dilution for 10 seconds, air-dried and placed in a plastic cup having a diameter of 10 cm. Then second-instar larvae of tobacco cutworm were set free in the cup. The cup was allowed to stand still in a thermostat chamber maintained at 25° C. After 24 hours, the numbers of killed and living larvae were counted and the mortality was calculated. The obtained result was expressed by an average value obtained from the mortality calculated in three test cups.

Setting [6] is: 20 ppm, fifth-instar larvae, 24 hours, read-out: Motality (%), Fifth-Instar Larvae.
Setting [7] is: 20 ppm, second-instar larvae, 24 hours, read-out: Motality (%), Second-Instar Larvae.
Where [8] appears, read: 100 ppm, fifth-instar larvae, 24 hours, read-out: Motality (%), Fifth-Instar Larvae.
Setting [9] is: 100 ppm, second-instar larvae, 24 hours, read-out: Motality (%), Second-Instar Larvae.
The mark [10] stands for this setting: 20 ppm, third-instar larvae, 24 hours, read-out: Mortality (%).
Setting [11] is: 100 ppm, third-instar larvae, 24 hours, read-out: Mortality (%).
The mark [12] stands for this setting: 24 h, read-out: Motality (%), Fifth-Instar Larvae.

Where two headings read alike, the source gives them in different places.

One may read the LD50 as the dose at which mortality reaches 50%. Take `CC(F)(F)Oc1ccc(C(C)(C)COCc2cccc(Oc3ccccc3)c2)cc1` [Compound 79, 3-Phenoxybenzyl 2-[4-(1,1-difluoroethoxy)phenyl]-2-methylpropyl ether]: the results for the mortality at 20 ppm in the data set with tobacco cutworm [1] (setting [6]) and in the data set with tobacco cutworm [1] (setting [7]) were 50% and 80%, respectively. The mortality at 100 ppm with tobacco cutworm [1] (setting [8]) was determined as 90%; in the data set on tobacco cutworm [1] (setting [9]), 100%. Moreover, the mortality at 10 mg/m2 with German cockroach was 100%. The mortality at 50 mg/m2 in the data set on German cockroach was 100%. Also, in data set [2], the LD50 at 168 h is > 500 mg/kg.

`CC(C)(COCc1cccc(Oc2ccccc2)c1)c1ccc(OC2CCCC2)cc1` [Compound 61, 3-Phenoxybenzyl 2-(4-cyclopentyloxyphenyl)-2-methylpropyl ether]: in the data set with German cockroach, the mortality at 10 mg/m2 is 70% and the mortality at 50 mg/m2 was found to be 100%. The 50% lethal dose (LD50) at 168 h in data set [2] is > 500 mg/kg. In data set [3], the mortality at 20 ppm worked out at 100% and the mortality at 100 ppm was found to be 100%. For the same compound, in data set [4], the mortality at 20 ppm was determined as 100% and the mortality at 100 ppm is 100%.

For `CC(C)(COCc1cccc(Oc2ccccc2)c1)c1ccc(SC(F)(F)F)cc1` [Compound 104, 3-Phenoxybenzyl 2-(4-trifluoromethylthiophenyl)-2-methylpropyl ether], in the data set with German cockroach, the mortality at 10 mg/m2 was determined as 90% and the mortality at 50 mg/m2 came to 100%. In data set [2], the LD50 at 168 h was > 500 mg/kg. Besides, the mortality at 20 ppm with diamond back moth (setting [10]) was 70%. The mortality at 100 ppm in the data set with diamond back moth (setting [11]) came to 100%.

Consider `CC(C)(COCc1cccc(Oc2cccc(Cl)c2)c1)c1ccc(Cl)c(Cl)c1` [Compound 38, 3-(3-Chlorophenoxy)benzyl 2-(3,4-dichlorophenyl)-2-methylpropyl ether], for which, in the data set with German cockroach, the mortality at 10 mg/m2 is 90% and the mortality at 50 mg/m2 worked out at 100%. The LD50 at 168 h in data set [2] is > 500 mg/kg. For the same compound, in data set [3], the mortality at 20 ppm worked out at 80% and the mortality at 100 ppm was determined as 100%. Further, in data set [4], the mortality at 20 ppm came out at 95% and the mortality at 100 ppm turned out to be 100%.

With `CCOc1ccc(Oc2cccc(COCC(C)(C)c3ccc(OCC)cc3)c2)cc1` [Compound 101, 3-(4-Ethoxyphenoxy)benzyl 2-(4-ethoxyphenyl)-2-methylpropyl ether], the mortality at 20 ppm (in the data set on tobacco cutworm [1] (setting [6]); with tobacco cutworm [1] (setting [7]); in data set [3]; in the data set with tobacco cutworm [5]; in data set [4]; in the data set on diamond back moth (setting [10])) was 100% in each case. In addition, the mortality at 100 ppm (with tobacco cutworm [1] (setting [8]); in the data set on tobacco cutworm [1] (setting [9]); in data set [3]; in the data set with tobacco cutworm [5]; in data set [4]; in the data set on diamond back moth (setting [11])) was 100% throughout. Moreover, the LD50 at 168 h in data set [2] was > 500 mg/kg.

In the case of `CCOc1ccc(Oc2cccc(COCC(C)(C)c3ccc(Cl)cc3)c2)cc1` [Compound 94, 3-(4-Ethoxyphenoxy)benzyl 2-(4-chlorophenyl)-2-methylpropyl ether], the median lethal dose (LD50) at 168 h in data set [2] is > 500 mg/kg. Besides, the mortality at 20 ppm in data set [3] worked out at 100%; with tobacco cutworm [5], 100%; in data set [4], 100%; in the data set on diamond back moth (setting [10]), 80%. Further, the mortality at 100 ppm (in data set [3]; in the data set with tobacco cutworm [5]; in data set [4]; in the data set on diamond back moth (setting [11])) was 100% each time.

Regarding `CC(C)(COCc1cccc(Oc2ccccc2)c1)c1ccc([N+](=O)[O-])cc1` [Compound 43, 3-Phenoxybenzyl 2-(4-nitrophenyl)-2-methylpropyl ether], in the data set with German cockroach, the mortality at 10 mg/m2 was found to be 100% and the mortality at 50 mg/m2 is 100%. The LD50 at 168 h in data set [2] was > 500 mg/kg. Also, in data set [3], the mortality at 20 ppm turned out to be 90% and the mortality at 100 ppm is 100%. Further, in the data set on tobacco cutworm [5], the mortality at 20 ppm amounted to 85% and the mortality at 100 ppm came out at 100%. In data set [4], the mortality at 20 ppm was determined as 100% and the mortality at 100 ppm worked out at 100%.

For `CC(C)(COCc1cccc(Oc2ccccc2)c1)c1ccc(OC(F)(F)CI)cc1` [Compound 74, 3-Phenoxybenzyl 2-[4-(1,1-difluoro-2-iodoethoxy)phenyl]-2-methylpropyl ether], the mortality at 20 ppm in the data set on tobacco cutworm [1] (setting [6]) was determined as 50%; in the data set with tobacco cutworm [1] (setting [7]) it was 70%; in the data set on tobacco cutworm [5], 100%. In addition, the mortality at 100 ppm came out at 80% in the data set on tobacco cutworm [1] (setting [8]), 100% in the data set with tobacco cutworm [1] (setting [9]) and 100% in the data set on tobacco cutworm [5]. The mortality at 10 mg/m2 with German cockroach was determined as 100%. For the same compound, the mortality at 50 mg/m2 with German cockroach turned out to be 100%. For the same compound, the LD50 at 168 h in data set [2] is > 500 mg/kg.

Turning to `Cc1ccc(C(C)(C)COCc2cccc(Oc3ccccc3)c2)cc1C` [Compound 109], in the data set on German cockroach, the mortality at 10 mg/m2 was 100% and the mortality at 50 mg/m2 amounted to 100%. Also, the LD50 at 168 h in data set [2] was > 500 mg/kg. In data set [3], the mortality at 20 ppm amounted to 70% and the mortality at 100 ppm was found to be 100%. Also, in data set [4], the mortality at 20 ppm worked out at 90% and the mortality at 100 ppm stood at 100%.

Regarding `CC(C)(COCc1cccc(Oc2ccc(F)cc2)c1)c1ccc(Cl)c(Cl)c1` [Compound 17, 3-(4-fluorophenoxy)benzyl 2-(3,4-dichlorophenyl)-2-methylpropyl ether], the mortality at 10 mg/m2 with German cockroach turned out to be 100%. The mortality at 50 mg/m2 with German cockroach was found to be 100%. The 50% lethal dose (LD50) at 168 h in data set [2] was > 500 mg/kg. Also, the mortality at 20 ppm in data set [3] was found to be 100%; in the data set on tobacco cutworm [5], 80%; in data set [4] it was 100%; with diamond back moth (setting [10]), 90%. The mortality at 100 ppm (in data set [3]; in the data set on tobacco cutworm [5]; in data set [4]; in the data set with diamond back moth (setting [11])) was 100% each time.

With `CC(C)(COCc1cccc(Oc2ccccc2)c1)c1ccc(I)cc1` [Compound 65, 3-Phenoxybenzyl 2-(4-iodophenyl)-2-methylpropyl ether], in the data set with German cockroach, the mortality at 10 mg/m2 is 90% and the mortality at 50 mg/m2 came out at 100%. Also, the LD50 at 168 h in data set [2] was > 500 mg/kg. In data set [3], the mortality at 20 ppm was 100% and the mortality at 100 ppm amounted to 100%. In the data set on tobacco cutworm [5], this compound had a mortality at 20 ppm of 90% and a mortality at 100 ppm of 100%. Besides, in data set [4], the mortality at 20 ppm came to 100% and the mortality at 100 ppm is 100%.

In the case of `CNC(=O)ON=C(C)SC` [Comparative Compound (f), S-methyl N-(methylcarbamoyloxy)thioacetoamidate, reference compound], the mortality at 20 ppm in the data set on tobacco cutworm [1] (setting [12]) is 0%; with tobacco cutworm [1] (24 h, read-out: Motality (%), Second-Instar Larvae), 30%; in the data set with diamond back moth (24 h), 0%. Besides, the figures for the mortality at 100 ppm in the data set on tobacco cutworm [1] (setting [12]) and in the data set on diamond back moth (24 h) were 80% and 10%, respectively. This compound came in with an LD50 at 168 h in data set [2] of 28 mg/kg.
